ChEMBL document CHEMBL1142802, “L-arginine analogs as alternate substrates for nitric oxide synthase” (Bioorg Med Chem Lett, 2005)

Molecular target: Nitric oxide synthase, inducible (Homo sapiens, UniProt P35228)
Assay: Binding affinity towards inducible nitric oxide synthase

Chain of Nitric oxide synthase, inducible (P35228 whole entry): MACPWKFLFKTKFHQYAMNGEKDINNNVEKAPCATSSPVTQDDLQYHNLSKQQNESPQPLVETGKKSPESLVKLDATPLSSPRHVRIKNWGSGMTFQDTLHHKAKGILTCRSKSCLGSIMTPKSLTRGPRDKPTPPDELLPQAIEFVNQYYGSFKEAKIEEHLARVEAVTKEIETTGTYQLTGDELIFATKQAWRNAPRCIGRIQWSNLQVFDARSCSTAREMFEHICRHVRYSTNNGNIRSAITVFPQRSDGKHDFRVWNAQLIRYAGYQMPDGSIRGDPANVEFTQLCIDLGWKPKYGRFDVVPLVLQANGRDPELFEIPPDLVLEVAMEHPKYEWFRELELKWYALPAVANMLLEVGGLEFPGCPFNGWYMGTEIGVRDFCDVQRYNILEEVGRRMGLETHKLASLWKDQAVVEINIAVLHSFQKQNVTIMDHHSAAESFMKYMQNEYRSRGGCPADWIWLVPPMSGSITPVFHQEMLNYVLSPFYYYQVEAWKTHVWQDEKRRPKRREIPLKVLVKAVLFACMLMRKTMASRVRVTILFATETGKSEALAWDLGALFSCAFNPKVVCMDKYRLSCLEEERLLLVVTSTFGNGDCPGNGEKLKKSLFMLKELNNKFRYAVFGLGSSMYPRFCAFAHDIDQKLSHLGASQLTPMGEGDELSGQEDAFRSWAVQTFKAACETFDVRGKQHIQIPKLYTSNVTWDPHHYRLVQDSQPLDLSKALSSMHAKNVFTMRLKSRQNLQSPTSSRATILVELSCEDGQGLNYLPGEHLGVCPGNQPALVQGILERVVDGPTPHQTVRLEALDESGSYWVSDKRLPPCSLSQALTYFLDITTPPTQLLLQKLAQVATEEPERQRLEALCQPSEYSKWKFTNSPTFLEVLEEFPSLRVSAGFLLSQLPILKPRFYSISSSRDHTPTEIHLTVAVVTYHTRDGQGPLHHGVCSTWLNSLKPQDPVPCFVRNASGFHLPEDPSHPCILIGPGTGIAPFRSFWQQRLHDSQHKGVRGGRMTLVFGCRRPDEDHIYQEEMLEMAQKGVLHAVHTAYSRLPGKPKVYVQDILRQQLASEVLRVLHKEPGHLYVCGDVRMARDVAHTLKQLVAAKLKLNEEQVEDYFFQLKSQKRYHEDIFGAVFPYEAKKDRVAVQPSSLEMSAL

`N=C(N)CCCCC(N)C(=O)O` (configuration not stated) gave a Ki of over 3000 µM.
With `N=C(N)NOCC[C@H](N)C(=O)O` [CANAVANINE] the Ki was 220 µM.
